Reference: patent US9828338B2, “Carbamate derivatives of lactam based N-acylethanolamine acid amidase (NAAA) inhibitors” (The Regents of the University of California, priority 2013, dated 2017)
Where two headings read alike, the source gives them in different places.

Target: T1, r-NAAA (Rattus norvegicus, UniProt Q5KTC7)
T1 construct: Lysosomal NAAA protein preparation was obtained by homogenizing male Sprague-Dawley rat lungs; tissue Charles River (animals); host or cells: male Sprague-Dawley rat lung, soluble lysosomal fraction
T1 sequence (Q5KTC7 34-362): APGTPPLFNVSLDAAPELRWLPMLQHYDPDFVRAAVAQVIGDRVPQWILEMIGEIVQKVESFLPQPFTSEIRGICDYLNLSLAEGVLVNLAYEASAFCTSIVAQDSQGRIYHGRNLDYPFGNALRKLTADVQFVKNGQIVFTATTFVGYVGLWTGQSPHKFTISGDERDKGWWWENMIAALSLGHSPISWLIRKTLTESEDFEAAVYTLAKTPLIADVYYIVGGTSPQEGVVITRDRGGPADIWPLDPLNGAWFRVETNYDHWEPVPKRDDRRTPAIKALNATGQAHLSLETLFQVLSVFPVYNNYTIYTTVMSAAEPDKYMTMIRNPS
Assay: UPLC/MS r-NAAA assay
Type: biochemical
Details: for r-NAAA UPLC/MS assay (n.a.): @100 μM
Description: Lysosomal NAAA protein preparation was obtained by homogenizing male Sprague-Dawley rat lungs (Charles River) in 20 mM Tris-HCl buffer pH 7.4 containing 0.32M sucrose. […] Supernatants were then centrifuged at 12,000 xg for 30 min at 4° C. Pellets were then resuspended in PBS pH 7.4 and subjected to a freeze/thaw cycle at −80° C. The suspension was finally centrifuged at 105,000×g for 1 h at 4° C. The supernatant was then used in the enzymatic assay.
NAAA protein preparation was pre-incubated with various concentrations of test compounds or vehicle control in 100 mM NaH2PO4/Citrate buffer, 1% Triton-X, 3 mM DTT (pH 4.5) for 30 min at 37° C. Samples were then incubated with heptadecenoylethanolamide (50 μM, Avanti Polar Lipids) at 37° C. for 30 min. The reaction was terminated by addition of cold methanol containing heptadecanoic acid (NuCheck Prep) as internal standard. Samples were then analyzed by UPLC/MS (Acquity, Waters). […] The column temperature was 40° C. Electrospray ionization was in the negative mode, capillary voltage was 0.5 kV, cone voltage was […], desolvation temperature was 500° C. N2 was used as drying gas at a flow rate of 1000 L/hour and a temperature of 500° C. […] Calibration curves were generated using commercial heptadecenoic acid (NuCheck Prep) Inhibition of NAAA activity was calculated as reduction of heptadecenoic acid in the samples compared to vehicle controls. IC50 values were calculated by non-linear regression analysis of log [concentration]/inhibition curves using GraphPad Prism 5 (GraphPad Software Inc., CA—USA) applying a standard slope curve fitting.

[1] = read-out: r-NAAA UPLC/MS assay % inhib.
[2] = @ 30 μM, read-out: r-NAAA UPLC/MS assay % inhib.

Row | Compound | IC50 | further results
1 | O=C(N[C@H]1CNC1=O)OC1CCC(Cc2ccccc2)CC1 (mixture of isomers) [Example 7, (1s,4R) and (1r,4S)-(4-Benzylcyclohexyl)-N-[(3S)-2-oxoazetidin-3-yl]-carbamate] | 6600 nM | 
2 | CC(CCCCc1ccccc1)OC(=O)N[C@H]1CNC1=O (mixture of isomers) [Example 15, [(1S)- and (1R)-(1-Methyl-5-phenyl-pentyl)]-N-[(3S)-2-oxoazetidin-3-yl]-carbamate] | 3900 nM | 
3 | CCCCCCCOC(=O)N[C@@H]1CNC1=O [Example 2, Heptyl-N-[(3R)-2-oxoazetidin-3-yl]-carbamate] | 66000 nM | 
4 | O=C(N[C@H]1CNC1=O)OCCCCCc1ccccc1 [Example 3, 5-Phenylpentyl-N-[(3S)-2-oxoazetidin-3-yl]-carbamate] | 620 nM | 
5 | O=C(N[C@@H]1CNC1=O)OCCCCCc1ccccc1 [Example 4, 5-Phenylpentyl-N-[(3R)-2-oxoazetidin-3-yl]-carbamate] | 18700 nM | 
6 | O=C(N[C@H]1CNC1=O)OC1CCC(=Cc2ccccc2)CC1 (stereo partly drawn) [Example 8, (R,E) and (S,Z)-(4-Benzylidenecyclohexyl)-N-[(3S)-2-oxoazetidin-3-yl]-carbamate] | 5700 nM | 
7 | O=C(N[C@H]1CNC1=O)OCC/C=C/c1ccccc1 [Example 11, [(E)-4-Phenylbut-3-enyl]-N-[(3S)-2-oxoazetidin-3-yl]-carbamate] | 6620 nM | 
8 | O=C(N[C@H]1CNC1=O)OCC/C=C\c1ccccc1 [Example 12, [(Z)-4-Phenylbut-3-enyl]-N-[(3S)-2-oxoazetidin-3-yl]-carbamate] | 1600 nM | 
9 | Cc1cccc(C)c1CCCCOC(=O)N[C@H]1CNC1=O [Example 14, 4-(2,6-Dimethylphenyl)-butyl-N-[(3S)-2-oxoazetidin-3-yl]-carbamate] | 8100 nM | 
10 | CC(C)(CCCCc1ccccc1)OC(=O)N[C@H]1CNC1=O [Example 16, (1,1-Dimethyl-5-phenyl-pentyl)-N-[(3S)-2-oxoazetidin-3-yl]-carbamate] | 8000 nM | 
11 | O=C(N[C@H]1CNC1=O)OCCCC1CCCCC1 [Example 18, 3-Cyclohexylpropyl-N-[(3S)-2-oxoazetidin-3-yl]-carbamate] | 40 nM | 
12 | O=C(N[C@H]1CNC1=O)OCCCCCC1CCCCC1 [Example 19, 5-Cyclohexylpentyl-N-[(3S)-2-oxoazetidin-3-yl]-carbamate] | 58 nM | 
13 | O=C(N[C@H]1CNC1=O)OCCCCC1CCCC1 [Example 20, 4-Cyclopentylbutyl-N-[(3S)-2-oxoazetidin-3-yl]-carbamate] | 48 nM | 
14 | CCCCCCOC(=O)N[C@H]1CNC1=O [Example 23, Hexyl-N-[(3S)-2-oxoazetidin-3-yl]-carbamate] | 1600 nM | 
15 | CCCCCCCCOC(=O)N[C@H]1CNC1=O [Example 24, Octyl-N-[(3S)-2-oxoazetidin-3-yl]-carbamate] | 16 nM | 
16 | CCCCc1ccc(COC(=O)N[C@H]2CNC2=O)cc1 [Example 26, (4-Butylphenyl)-methyl-N-[(3S)-2-oxoazetidin-3-yl]-carbamate] | 46 nM | 
17 | Cc1ccccc1CCCCOC(=O)N[C@H]1CNC1=O [Example 29, 4-(o-Tolyl)-butyl-N-[(3S)-2-oxoazetidin-3-yl]-carbamate] | 2000 nM | 
18 | O=C(N[C@H]1CNC1=O)OCc1cccc(Cc2ccccc2)c1 [Example 32, (3-Benzylphenyl)-methyl-N-[(3S)-2-oxoazetidin-3-yl]-carbamate] | 1200 nM | 
19 | O=C(N[C@H]1CNC1=O)Oc1ccc(Cc2ccccc2)cc1 [Example 33, (4-Benzylphenyl)-N-[(3S)-2-oxoazetidin-3-yl]-carbamate] | 21000 nM | 
20 | O=C(N[C@H]1CNC1=O)OCc1ccccc1C1CCCCC1 [Example 35, (2-Cyclohexylphenyl)-methyl-N-[(3S)-2-oxoazetidin-3-yl]-carbamate] |  | r-NAAA UPLC/MS assay (n.a.): n.a. (n.a. = <10% inhib. @100 μM)
21 | O=C(N[C@H]1CNC1=O)OCCc1ccc(-c2ccccc2)cc1 [Example 36, 2-(4-Phenylphenyl)-ethyl-N-[(3S)-2-oxoazetidin-3-yl]-carbamate] | 5050 nM | 

Row | Compound | IC50 | further results
22 | O=C(N[C@H]1CNC1=O)OCCCCc1ccccn1 [Example 37, 4-(2-Pyridyl)-butyl-N-[(3S)-2-oxoazetidin-3-yl]-carbamate] |  | r-NAAA UPLC/MS assay (n.a.): n.a. (n.a. = <10% inhib. @100 μM)
23 | O=C(N[C@H]1CNC1=O)OCCCCc1ccc(C(F)(F)F)cc1 [Example 38, 4-[4-(Trifluoromethyl)-phenyl]-butyl-N-[(3S)-2-oxoazetidin-3-yl]-carbamate] | 670 nM | 
24 | CCc1ccc(CCCCOC(=O)N[C@H]2CNC2=O)cc1 [Example 39, 4-(4-Ethylphenyl)-butyl-N-[(3S)-2-oxoazetidin-3-yl]-carbamate] | 1000 nM | 
25 | Cc1ccccc1-c1ccc(COC(=O)N[C@H]2CNC2=O)cc1 [Example 40, [4-(o-Tolyl)-phenyl]-methyl-N-[(3S)-2-oxoazetidin-3-yl]-carbamate] | 510 nM | 
26 | Cc1ccccc1-c1ccc(COC(=O)N[C@H]2CNC2=O)cc1C [Example 41, [3-Methyl-4-(o-tolyl)-phenyl]-methyl-N-[(3S)-2-oxoazetidin-3-yl]-carbamate] | 910 nM | 
27 | Cc1cccc(-c2ccc(COC(=O)N[C@H]3CNC3=O)cc2C)c1 [Example 42, [3-Methyl-4-(m-tolyl)-phenyl]-methyl-N-[(3S)-2-oxoazetidin-3-yl]-carbamate] | 620 nM | 
28 | Cc1cccc(-c2ccc(COC(=O)N[C@H]3CNC3=O)cc2)c1 [Example 43, [4-(m-Tolyl)-phenyl]-methyl-N-[(3S)-2-oxoazetidin-3-yl]-carbamate] | 870 nM | 
29 | Cc1cc(COC(=O)N[C@H]2CNC2=O)ccc1-c1ccccc1 [Example 44, (3-Methyl-4-phenyl-phenyl)-methyl-N-[(3S)-2-oxoazetidin-3-yl]-carbamate] | 590 nM | 
30 | O=C(N[C@H]1CNC1=O)OCc1ccc(-c2ccncc2)cc1 [Example 45, [4-(4-Pyridyl)-phenyl]-methyl-N-[(3S)-2-oxoazetidin-3-yl]-carbamate] |  | inhibition at 30 µM [1]: 48%
31 | O=C(N[C@H]1CNC1=O)OCCCCC1CCOCC1 [Example 48, 4-Tetrahydropyran-4-yl-butyl-N-[(3S)-2-oxoazetidin-3-yl]-carbamate] | 12600 nM | 
32 | O=C(N[C@H]1CNC1=O)OCCOCC1CCCCC1 [Example 49, 2-(Cyclohexylmethoxy)-ethyl-N-[(3S)-2-oxoazetidin-3-yl]-carbamate] | 1650 nM | 
33 | O=C(N[C@H]1CNC1=O)OCCOCCC1CCCCC1 [Example 51, 2-(2-Cyclohexylethoxy)-ethyl-N-[(3S)-2-oxoazetidin-3-yl]-carbamate] | 770 nM | 
34 | O=C(N[C@H]1CNC1=O)OCc1ccc(C2CCCC2)cc1 [Example 55, (4-Cyclopentylphenyl)-methyl-N-[(3S)-2-oxoazetidin-3-yl]-carbamate] | 31 nM | 
35 | CC(C)(C)c1ccc(COC(=O)N[C@H]2CNC2=O)cc1 [Example 57, (4-tert-Butylphenyl)-methyl-N-[(3S)-2-oxoazetidin-3-yl]-carbamate] | 180 nM | 
36 | O=C(N[C@H]1CNC1=O)OCc1cccc(-c2ccccc2)c1 [Example 62, (3-Phenylphenyl)-methyl-N-[(3S)-2-oxoazetidin-3-yl]-carbamate] |  | inhibition at 30 µM [1]: 45%
37 | O=C(N[C@H]1CNC1=O)OCc1ccc(OC2CCCCC2)cc1 [Example 64, [4-(Cyclohexoxy)-phenyl]-methyl-N-[(3S)-2-oxoazetidin-3-yl]-carbamate] | 160 nM | 
38 | C#CCCOC(=O)N[C@H]1CNC1=O [Example 65, But-3-ynyl-N-[(3S)-2-oxoazetidin-3-yl]-carbamate] |  | inhibition at 30 µM [2]: 20%
39 | C[C@@H]1NC(=O)[C@H]1NC(=O)OCCCCCc1ccccc1 [Example 75, 5-Phenylpentyl-N-[(2S,3S)-2-methyl-4-oxo-azetidin-3-yl]-carbamate] | 2800 nM | 
40 | C[C@H]1NC(=O)[C@H]1NC(=O)OCc1ccc(-c2ccccc2)cc1 [Example 77, (4-Phenylphenyl)-methyl-N-[(2R,3S)-2-methyl-4-oxo-azetidin-3-yl]-carbamate] |  | r-NAAA UPLC/MS assay (n.a.): n.a. (n.a. = <10% inhib. @100 μM)
41 | C[C@H]1NC(=O)[C@H]1NC(=O)OCc1ccc(C2CCCCC2)cc1 [Example 78, (4-Cyclohexylphenyl)-methyl-N-[(2R,3S)-2-methyl-4-oxo-azetidin-3-yl]-carbamate] |  | inhibition at 100 µM [1]: 55%
42 | C[C@H]1NC(=O)[C@H]1NC(=O)OCCCCCc1ccccc1 [Example 79, 5-Phenylpentyl-N-[(2R,3S)-2-methyl-4-oxo-azetidin-3-yl]-carbamate] |  | inhibition at 30 µM [2]: 35%
